Measurements: ChEMBL document CHEMBL4346675, “Multi-target compounds acting in cancer progression: Focus on thiosemicarbazone, thiazole and thiazolidinone analogues” (Eur J Med Chem, 2019)
pIC50, pKi: −log10 of the molar value.

Columns and labels:
[1] = test system: CFPAC-1; experiment: Cytotoxicity against human CFPAC-1 cells incubated for 24 hrs by MTT assay; format: functional, cell-based; details: CFPAC-1, 24 h
[2] = test system: MIA PaCa-2; experiment: Cytotoxicity against human MIAPaCa2 cells incubated for 24 hrs by MTT assay; format: functional, cell-based; details: MIA PaCa-2, 24 h
[3] = test system: PANC-1; experiment: Cytotoxicity against human PANC1 cells incubated for 24 hrs by MTT assay; format: functional, cell-based; details: PANC-1, 24 h
[4] = test system: Capan-2; experiment: Cytotoxicity against human Capan2 cells incubated for 24 hrs by MTT assay; format: functional, cell-based; details: Capan-2, 24 h
[5] = biological target: Suppressor of tumorigenicity 14 protein (Homo sapiens, UniProt Q9Y5Y6); experiment: Inhibition of recombinant human matriptase preincubated for 30 mins followed by Boc-QLR-AMC substrate addition by fluorescence assay
Chain of Suppressor of tumorigenicity 14 protein (Q9Y5Y6 whole entry, the tested form may be a part): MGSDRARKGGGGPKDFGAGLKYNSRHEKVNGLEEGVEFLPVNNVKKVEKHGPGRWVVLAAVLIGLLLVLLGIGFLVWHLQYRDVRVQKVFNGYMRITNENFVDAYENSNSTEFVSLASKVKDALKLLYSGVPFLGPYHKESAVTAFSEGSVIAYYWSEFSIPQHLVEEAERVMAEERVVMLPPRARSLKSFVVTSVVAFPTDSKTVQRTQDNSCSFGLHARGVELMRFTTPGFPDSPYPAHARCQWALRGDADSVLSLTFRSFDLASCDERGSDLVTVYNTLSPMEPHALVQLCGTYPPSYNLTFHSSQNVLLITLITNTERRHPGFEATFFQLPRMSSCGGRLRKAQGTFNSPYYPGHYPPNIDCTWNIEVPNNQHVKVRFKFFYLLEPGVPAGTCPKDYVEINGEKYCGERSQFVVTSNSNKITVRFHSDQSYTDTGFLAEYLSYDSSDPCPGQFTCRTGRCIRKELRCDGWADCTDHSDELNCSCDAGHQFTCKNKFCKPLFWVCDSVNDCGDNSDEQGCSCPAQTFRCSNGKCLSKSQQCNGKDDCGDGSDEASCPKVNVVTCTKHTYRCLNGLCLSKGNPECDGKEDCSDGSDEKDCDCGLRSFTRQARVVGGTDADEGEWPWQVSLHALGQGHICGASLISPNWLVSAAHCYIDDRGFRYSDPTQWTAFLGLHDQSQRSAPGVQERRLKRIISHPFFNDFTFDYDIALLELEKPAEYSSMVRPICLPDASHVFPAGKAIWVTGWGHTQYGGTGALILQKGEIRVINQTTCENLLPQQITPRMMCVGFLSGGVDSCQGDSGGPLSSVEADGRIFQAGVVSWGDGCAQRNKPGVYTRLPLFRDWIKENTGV

[6] = biological target: Hepatocyte growth factor activator serine protease (Homo sapiens, UniProt Q04756); experiment: Inhibition of recombinant HGFA serine protease domain (unknown origin) preincubated for 30 mins followed by Boc-QLR-AMC substrate addition by fluorescence assay
Chain of Hepatocyte growth factor activator serine protease (Q04756 373-407 limits assumed): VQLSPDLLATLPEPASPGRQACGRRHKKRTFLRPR
Chain of Hepatocyte growth factor activator serine protease (Q04756 408-655 limits assumed): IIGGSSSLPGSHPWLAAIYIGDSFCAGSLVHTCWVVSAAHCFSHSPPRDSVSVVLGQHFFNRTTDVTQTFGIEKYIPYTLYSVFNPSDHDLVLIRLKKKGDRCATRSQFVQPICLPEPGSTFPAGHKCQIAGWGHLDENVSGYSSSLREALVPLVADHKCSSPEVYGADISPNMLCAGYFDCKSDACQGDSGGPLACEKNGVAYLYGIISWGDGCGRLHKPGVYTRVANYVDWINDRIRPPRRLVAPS

[7] = biological target: Serine protease hepsin (Homo sapiens, UniProt P05981); experiment: Inhibition of recombinant human hepsin preincubated for 30 mins followed by Boc-QLR-AMC substrate addition by fluorescence assay
Chain of Serine protease hepsin (P05981 1-162 limits assumed): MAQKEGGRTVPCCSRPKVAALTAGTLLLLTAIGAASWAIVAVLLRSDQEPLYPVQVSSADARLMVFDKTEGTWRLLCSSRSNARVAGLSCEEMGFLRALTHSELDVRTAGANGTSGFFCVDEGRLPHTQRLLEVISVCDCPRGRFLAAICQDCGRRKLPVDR
Chain of Serine protease hepsin (P05981 163-417 limits assumed): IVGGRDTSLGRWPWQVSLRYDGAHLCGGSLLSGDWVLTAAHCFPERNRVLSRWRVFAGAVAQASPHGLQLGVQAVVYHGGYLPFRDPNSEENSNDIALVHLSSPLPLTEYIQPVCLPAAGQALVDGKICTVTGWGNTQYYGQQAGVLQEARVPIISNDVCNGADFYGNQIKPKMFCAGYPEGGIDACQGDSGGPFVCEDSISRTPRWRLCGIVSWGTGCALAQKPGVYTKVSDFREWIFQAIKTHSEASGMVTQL

[8] = biological target: Coagulation factor X (Homo sapiens, UniProt P00742); experiment: Inhibition of recombinant factor 10a (unknown origin) preincubated for 30 mins followed by chromogenic substrate addition by fluorescence assay
Chain of Coagulation factor X (P00742 41-179 limits assumed): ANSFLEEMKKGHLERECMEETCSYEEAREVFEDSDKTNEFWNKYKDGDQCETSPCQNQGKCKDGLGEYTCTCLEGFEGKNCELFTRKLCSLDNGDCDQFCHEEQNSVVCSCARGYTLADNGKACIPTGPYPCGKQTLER
Chain of Coagulation factor X (P00742 235-488 limits assumed): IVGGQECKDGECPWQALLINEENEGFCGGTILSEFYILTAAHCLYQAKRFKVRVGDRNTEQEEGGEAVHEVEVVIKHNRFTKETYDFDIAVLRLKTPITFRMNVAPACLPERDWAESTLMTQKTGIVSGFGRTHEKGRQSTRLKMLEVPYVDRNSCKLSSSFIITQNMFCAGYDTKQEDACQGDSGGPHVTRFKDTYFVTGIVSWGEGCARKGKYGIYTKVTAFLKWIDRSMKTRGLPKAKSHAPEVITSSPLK

[9] = test system: L02; experiment: Cytotoxicity against human L02 cells incubated for 48 hrs by MTT assay; format: cell-based; details: L02, 48 h
[10] = test system: CT26; experiment: Cytotoxicity against mouse CT26 cells incubated for 48 hrs by MTT assay; format: functional, cell-based; details: CT26, 48 h
[11] = test system: 4T1; experiment: Inhibition of colony formation in mouse 4T1 cells assessed as assessed as colony forming units at 2.5 uM incubated for 7 to 10 days by crystal violet staining based microscopic method (reference value: 364 +/- 46.4 No unit); format: functional
[12] = test system: B16; experiment: Cytotoxicity against mouse B16 cells incubated for 48 hrs by MTT assay; format: functional, cell-based; details: B16, 48 h
[13] = test system: 4T1; experiment: Inhibition of colony formation in mouse 4T1 cells assessed as colony forming units at 1.25 uM incubated for 7 to 10 days by crystal violet staining based microscopic method (reference value: 364 +/- 46.4 No unit); format: functional
[14] = Cytotoxicity against mouse MM3MG cells incubated for 48 hrs by MTT assay; format: functional, cell-based
[15] = test system: A549; experiment: Cytotoxicity against human A549 cells incubated for 48 hrs by MTT assay; format: functional, cell-based; details: A549, 48 h
[16] = test system: 4T1; experiment: Antitumor activity against mouse 4T1 cells implanted in BALB/c mouse assessed as median number of metastases per lung at 100 mg/kg, ig administered daily post implantation (reference value: 40.5); format: functional
[17] = test system: HeLa; experiment: Cytotoxicity against human HeLa cells incubated for 48 hrs by MTT assay; format: functional, cell-based
[18] = test system: 4T1; experiment: Cytotoxicity against mouse 4T1 cells incubated for 48 hrs by MTT assay; format: functional, cell-based; details: 4T1, 48 h
[19] = test system: DU-145; experiment: Cytotoxicity against human DU145 cells incubated for 48 hrs by MTT assay; format: functional, cell-based; details: DU-145, 48 h
[20] = test system: Lewis lung carcinoma cell line; experiment: Cytotoxicity against mouse LLC cells incubated for 48 hrs by MTT assay; format: functional, cell-based
[21] = test system: 4T1; experiment: Antitumor activity against mouse 4T1 cells implanted in BALB/c mouse assessed as median number of metastases per lung at 50 mg/kg, ig administered daily post implantation (reference value: 40.5); format: functional
[22] = test system: HK-2; experiment: Cytotoxicity against human HK2 cells incubated for 48 hrs by MTT assay; format: cell-based; details: HK-2, 48 h
[23] = Cytotoxicity against mouse Meth-A cells incubated for 48 hrs by MTT assay; format: functional, cell-based
[24] = test system: MDA-MB-231; experiment: Cytotoxicity against human MDA-MB-231 cells incubated for 48 hrs by MTT assay; format: functional, cell-based; details: MDA-MB-231, 48 h
[25] = biological target: Tubulin (Homo sapiens) (UniProt P68371+Q9H4B7+P0DPH7+P68366+Q13509+Q71U36+P04350+Q3ZCM7+P07437+P68363+Q9BQE3+Q6PEY2+Q13885+Q9BVA1+Q9BUF5); experiment: Inhibition of tubulin polymerization (unknown origin) at 3 uM incubated for 1 hr by fluorescence assay relative to control; format: protein-complex assay
[26] = biological target: Histone deacetylase 1 (Homo sapiens, UniProt Q13547); experiment: Inhibition of HDAC1 (unknown origin) using Ac-peptide as substrate pretreated for 15 mins followed by substrate addition and measured after 60 mins by fluorescence assay
Chain of Histone deacetylase 1 (Q13547 whole entry): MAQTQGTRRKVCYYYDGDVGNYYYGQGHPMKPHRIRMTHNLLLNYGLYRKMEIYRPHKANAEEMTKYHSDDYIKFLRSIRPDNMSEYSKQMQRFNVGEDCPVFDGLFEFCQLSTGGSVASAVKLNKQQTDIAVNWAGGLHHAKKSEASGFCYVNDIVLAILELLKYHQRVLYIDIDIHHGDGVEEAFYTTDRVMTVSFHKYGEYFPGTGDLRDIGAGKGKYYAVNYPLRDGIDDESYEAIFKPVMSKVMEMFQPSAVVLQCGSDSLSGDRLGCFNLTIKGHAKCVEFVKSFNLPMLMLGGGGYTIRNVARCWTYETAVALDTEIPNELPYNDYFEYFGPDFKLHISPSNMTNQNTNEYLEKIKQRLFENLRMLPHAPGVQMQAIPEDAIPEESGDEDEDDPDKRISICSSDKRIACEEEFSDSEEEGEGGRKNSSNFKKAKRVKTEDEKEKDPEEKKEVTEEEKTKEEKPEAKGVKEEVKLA

[27] = test system: Jurkat; experiment: Cytotoxicity against human Jurkat cells incubated for 72 hrs by MTT assay; format: functional
[28] = test system: HT-29; experiment: Cytotoxicity against human HT-29 cells incubated for 72 hrs by MTT assay; format: functional; details: HT-29, 72 h
[29] = Cytotoxicity against mouse DLA cells incubated for 48 hrs by LDH release assay; format: functional, cell-based
[30] = Cytotoxicity against mouse DLA cells incubated for 48 hrs by trypan blue dye based assay; format: functional, cell-based
[31] = Cytotoxicity against mouse DLA cells incubated for 48 hrs by MTT assay; format: functional, cell-based
[32] = test system: L1210; experiment: Growth inhibition of mouse L1210 cells by MTS assay; format: functional, cell-based
[33] = test system: HepG2; experiment: Cytotoxicity against human HepG2 cells incubated for 48 hrs by MTT assay; format: functional, cell-based; details: HepG2, 48 h
[34] = biological target: Epidermal growth factor receptor (Homo sapiens) (UniProt P00533); experiment: Inhibition of EGFR (unknown origin) at 10 uM by immunoassay relative to control
Chain of Epidermal growth factor receptor (Homo sapiens) (P00533 whole entry): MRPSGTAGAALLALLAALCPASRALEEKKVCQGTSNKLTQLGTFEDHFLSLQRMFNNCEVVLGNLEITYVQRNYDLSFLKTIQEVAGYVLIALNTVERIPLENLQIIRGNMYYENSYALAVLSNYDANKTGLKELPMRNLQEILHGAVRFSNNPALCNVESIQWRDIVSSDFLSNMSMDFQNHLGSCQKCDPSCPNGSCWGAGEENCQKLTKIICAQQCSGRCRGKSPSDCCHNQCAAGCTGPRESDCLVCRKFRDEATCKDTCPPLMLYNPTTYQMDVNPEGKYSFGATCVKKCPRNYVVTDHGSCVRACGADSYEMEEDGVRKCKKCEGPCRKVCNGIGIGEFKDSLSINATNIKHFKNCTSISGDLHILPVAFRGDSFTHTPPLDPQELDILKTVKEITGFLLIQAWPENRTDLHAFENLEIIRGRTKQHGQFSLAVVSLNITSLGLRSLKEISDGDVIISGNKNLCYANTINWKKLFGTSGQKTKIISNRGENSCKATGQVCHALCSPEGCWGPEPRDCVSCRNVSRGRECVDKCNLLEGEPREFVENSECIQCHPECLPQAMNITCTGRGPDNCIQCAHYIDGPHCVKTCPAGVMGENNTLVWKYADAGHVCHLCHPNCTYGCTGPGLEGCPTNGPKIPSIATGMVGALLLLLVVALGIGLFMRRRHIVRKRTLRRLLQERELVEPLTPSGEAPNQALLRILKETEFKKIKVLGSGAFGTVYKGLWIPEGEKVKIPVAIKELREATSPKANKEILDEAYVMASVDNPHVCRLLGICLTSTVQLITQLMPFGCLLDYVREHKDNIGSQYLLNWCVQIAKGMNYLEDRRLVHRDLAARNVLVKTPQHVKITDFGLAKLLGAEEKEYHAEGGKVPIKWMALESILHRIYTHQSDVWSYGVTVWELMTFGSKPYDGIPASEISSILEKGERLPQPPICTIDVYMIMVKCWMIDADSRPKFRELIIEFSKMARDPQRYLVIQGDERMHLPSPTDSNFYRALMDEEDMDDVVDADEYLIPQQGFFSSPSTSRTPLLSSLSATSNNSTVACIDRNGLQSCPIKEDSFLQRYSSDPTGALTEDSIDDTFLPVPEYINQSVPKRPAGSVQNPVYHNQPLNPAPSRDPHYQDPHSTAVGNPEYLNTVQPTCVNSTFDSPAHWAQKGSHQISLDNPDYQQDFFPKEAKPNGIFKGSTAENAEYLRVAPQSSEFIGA

[35] = biological target: Prothrombin (Homo sapiens, UniProt P00734); experiment: Inhibition of recombinant thrombin (unknown origin) preincubated for 30 mins followed by chromogenic substrate addition by fluorescence assay
[36] = test system: MDA-MB-231; experiment: Anti-invasive activity against human MDA-MB-231 cells at 30 nM by crystal violet staining based Boyden chamber assay relative to control; format: functional
[37] = test system: NIH3T3; experiment: Anti-invasive activity against mouse NIH/3T3 cells transfected with human AdoMetDC cDNA in sense orientation assessed as inhibition of cell invasion at 100 ng/ml incubated for 1 weeks by matrigel-based microscopic analysis relative to control; format: functional; details: NIH3T3, 168 h
[38] = test system: NIH3T3; experiment: Anti-invasive activity against mouse NIH/3T3 cells transfected with human AdoMetDC cDNA in antisense orientation assessed as inhibition of cell invasion at 100 ng/ml incubated for 1 weeks by matrigel-based microscopic analysis relative to control; format: functional; details: NIH3T3, 168 h
[39] = biological target: Proto-oncogene tyrosine-protein kinase Src (Homo sapiens, UniProt P12931); experiment: Inhibition of SRC (unknown origin) by Z'-LYTE assay
Chain of Proto-oncogene tyrosine-protein kinase Src (P12931 2-536 limits assumed): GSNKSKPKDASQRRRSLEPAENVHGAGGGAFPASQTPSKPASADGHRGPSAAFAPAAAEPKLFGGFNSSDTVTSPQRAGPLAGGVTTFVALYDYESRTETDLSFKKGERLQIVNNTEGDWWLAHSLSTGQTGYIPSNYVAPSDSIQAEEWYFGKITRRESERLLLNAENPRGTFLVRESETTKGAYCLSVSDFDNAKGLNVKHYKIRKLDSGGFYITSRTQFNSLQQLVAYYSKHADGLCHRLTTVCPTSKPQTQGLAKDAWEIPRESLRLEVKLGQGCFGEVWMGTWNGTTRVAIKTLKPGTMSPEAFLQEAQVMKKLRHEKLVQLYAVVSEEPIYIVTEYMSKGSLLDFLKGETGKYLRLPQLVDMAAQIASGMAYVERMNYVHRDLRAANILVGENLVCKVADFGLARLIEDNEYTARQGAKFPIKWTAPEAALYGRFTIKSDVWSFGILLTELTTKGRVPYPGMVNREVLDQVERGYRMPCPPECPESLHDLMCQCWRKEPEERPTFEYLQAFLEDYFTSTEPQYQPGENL

CN(C(=S)NN=C(c1ccccn1)c1ccccn1)C1CCCCC1
pIC50 [1]: 6.69 | pIC50 [2]: 8.30 | pIC50 [3]: 7.52 | pIC50 [4]: 7.70

CC(=O)N[C@@H](CCCCN)C(=O)N[C@@H](CCCNC(=N)N)C(=O)N[C@@H](CC(C)C)C(=O)N[C@@H](CCCNC(=N)N)C(=O)c1nc2ccc(C(=O)NCc3ccc(C(=O)O)cc3)cc2s1
pKi [5]: 8.60 | pKi [6]: 8.43 | pKi [7]: 9.17 | pKi [8]: 7.54

CN(C)C(=S)NN=C(c1ccccn1)c1ccccn1
pIC50 [1]: 6.70 | pIC50 [2]: 9.00 | pIC50 [3]: 8.40 | pIC50 [4]: 9.00

COc1ccccc1C(=O)Nc1ccc2nc(SCC(=O)NCc3ccc(Cl)cc3)sc2c1
pIC50 [9]: < 4.40 | pIC50 [10]: 5.37 | Activity [11]: 56 CFU | pIC50 [12]: 5.25 | Activity [13]: 189 CFU | pIC50 [14]: < 4.40 | pIC50 [15]: 5.62 | Activity [16]: 6 | pIC50 [17]: 5.37 | pIC50 [18]: 5.92 | pIC50 [19]: 5.72 | pIC50 [20]: 5.19 | Activity [21]: 19.5 | pIC50 [22]: < 4.40 | pIC50 [23]: 4.91

Nc1ccn([C@@H]2O[C@H](CO)[C@@H](O)C2(F)F)c(=O)n1 [GEMCITABINE]
pIC50 [1]: 7.66 | pIC50 [2]: 7.80 | pIC50 [3]: 4.96 | pIC50 [4]: 4.39

COc1ccc(C(=O)CCc2cn3c(n2)sc2ccccc23)cc1
pIC50 [24]: 5.92 | inhibition [25]: 61.4%

O=C(CCCOc1ccc(N2C(=O)CSC2c2ccc(Br)s2)cc1)NO (configuration not stated)
pIC50 [26]: 7.14

COC(=O)Nc1nc2cc(C(=O)c3cccs3)ccc2[nH]1
inhibition [25]: 58.3%

O=C1c2ccccc2C(=O)N1C/C=N\N=c1\scc(-c2cccc([N+](=O)[O-])c2)n1-c1ccccc1
CC50 [27]: 21.2 µM | CC50 [28]: 21.3 µM

O=C(CN1CCN(c2nc3ccccc3s2)CC1)NNC(=O)c1ccc(Br)cc1
pIC50 [29]: 4.64 | pIC50 [30]: 4.60 | pIC50 [31]: 4.65

CC/C(=N\Nc1nc(-c2ccc(OC)cc2)cs1)c1cccc(Br)c1
CC50 [27]: 114 µM | CC50 [28]: 62 µM

NC(=S)N/N=C/c1ncccc1N [TRIAPINE]
pIC50 [32]: 5.89

Clc1ccc(/C=N\Nc2ccc(-c3nc4ccccc4s3)cc2)cc1
pIC50 [33]: 7.57 | inhibition [34]: 47.3%

CC[C@H](NC(C)=O)C(=O)N[C@@H](CCCN)C(=O)N[C@@H](CC(C)C)C(=O)N[C@@H](CCCNC(=N)N)C(=O)c1nc2ccc(C(=O)NC3CCNCC3)cc2s1
pKi [5]: 8.89 | pKi [6]: 8.14 | pKi [7]: 9.57 | pKi [8]: 6.35 | pKi [35]: 5.53

COc1ccc2c(c1)sc1nc(CCC(=O)c3ccc(OC)c(O)c3)cn12
pIC50 [24]: 5.89 | inhibition [25]: 59.2%

C/C1=C/C(=O)O[C@@H]2C[C@@H](CC[C@H](C)/C=C\C=C\CC1)O[C@@](O)([C@@H]1CSC(=O)N1)C2 [LATRUNCULIN A]
Activity [36]: <50% | inhibition at 0.1 µg/mL [37]: > 95% | inhibition at 0.1 µg/mL [38]: > 95%

Cc1nc(Nc2ncc(-c3ccccc3)s2)cc(N2CCN(CCO)CC2)n1
pIC50 [39]: 7.01

O=c1[nH]cc(F)c(=O)[nH]1 [FLUOROURACIL]
pIC50 [1]: 4.38 | pIC50 [2]: 4.61 | pIC50 [3]: 4.21 | pIC50 [4]: 4.27

C/C(=N\NC1SC=C(c2ccc3ccccc3c2)N1C)c1ccccn1 (configuration not stated)
CC50 [27]: 16.2 µM | CC50 [28]: 57.8 µM
